± gives the expanded uncertainty stated by the source.
What was measured:
[1] = refractive index (Na D-line) (dimensionless); xn = mol fraction of the nth substance listed; details: 101 kPa, Liquid, Standard Abbe refractometry
[2] = refractive index (Na D-line) (dimensionless); details: 101.33 kPa, Liquid, Standard Abbe refractometry

Row | refractive index ([1]; 298.15 K, x1 = 0.01) | refractive index ([1]; 298.15 K, x1 = 0.02) | refractive index ([1]; 298.15 K, x1 = 0.03) | refractive index ([1]; 298.15 K, x1 = 0.04) | refractive index ([1]; 298.15 K, x1 = 0.05) | refractive index ([1]; 298.15 K, x1 = 0.06) | refractive index ([1]; 298.15 K, x1 = 1) | refractive index ([1]; 303.15 K, x1 = 0.01) | refractive index ([1]; 303.15 K, x1 = 0.02) | refractive index ([1]; 303.15 K, x1 = 0.03) | refractive index ([1]; 303.15 K, x1 = 0.04) | refractive index ([1]; 303.15 K, x1 = 0.05) | refractive index ([1]; 303.15 K, x1 = 0.06) | refractive index ([1]; 303.15 K, x1 = 1) | refractive index ([2]; 298.15 K) | refractive index ([2]; 303.15 K) | Structure (SMILES)
1 | 1.3371 ± 0.0005 | 1.3409 ± 0.0005 | 1.3448 ± 0.0005 | 1.348 ± 0.0005 | 1.351 ± 0.0005 | 1.354 ± 0.0005 | 1.4061 ± 0.0006 | 1.3366 ± 0.0005 | 1.3401 ± 0.0005 | 1.3431 ± 0.0005 | 1.347 ± 0.0005 | 1.3496 ± 0.0005 | 1.3521 ± 0.0005 | 1.4041 ± 0.0006 |  |  | C1CCOC1 [tetrahydrofuran] + O
2 |  |  |  |  |  |  |  |  |  |  |  |  |  |  | 1.3331 ± 0.0005 | 1.3326 ± 0.0005 | O [water]

Source: the NIST ThermoML archive (doi:10.1016/j.fluid.2013.11.002)
